# Source: ChEMBL document CHEMBL3758169, “4-Aminoindazolyl-dihydrofuro[3,4-d]pyrimidines as non-covalent inhibitors of mutant epidermal growth factor receptor tyrosine kinase” (Bioorg Med Chem Lett, 2016)
# Tests used:
# [1] = target: Tyrosine-protein kinase Lyn (Homo sapiens) (UniProt P07948); experiment: Inhibition of LYNB (unknown origin) at 100 nM
# [2] = target: Serine/threonine-protein kinase MARK1 (Homo sapiens) (UniProt Q9P0L2); experiment: Inhibition of MARK1 (unknown origin) at 100 nM
# [3] = target: Mitogen-activated protein kinase kinase kinase 2 (Homo sapiens) (UniProt Q9Y2U5); experiment: Inhibition of MEKK2 (unknown origin) at 100 nM
# [4] = target: Maternal embryonic leucine zipper kinase (Homo sapiens) (UniProt Q14680); experiment: Inhibition of MELK (unknown origin) at 100 nM
# [5] = target: Mitogen-activated protein kinase kinase kinase 9 (Homo sapiens) (UniProt P80192); experiment: Inhibition of MLK1 (unknown origin) at 100 nM
# [6] = target: Serine/threonine-protein kinase MRCK beta (Homo sapiens) (UniProt Q9Y5S2); experiment: Inhibition of MRCKbeta (unknown origin) at 100 nM
# [7] = target: Ribosomal protein S6 kinase alpha-4 (Homo sapiens) (UniProt O75676); experiment: Inhibition of MSK2 (unknown origin) at 100 nM
# Chain of Ribosomal protein S6 kinase alpha-4 (Homo sapiens) (O75676 whole entry, looked up): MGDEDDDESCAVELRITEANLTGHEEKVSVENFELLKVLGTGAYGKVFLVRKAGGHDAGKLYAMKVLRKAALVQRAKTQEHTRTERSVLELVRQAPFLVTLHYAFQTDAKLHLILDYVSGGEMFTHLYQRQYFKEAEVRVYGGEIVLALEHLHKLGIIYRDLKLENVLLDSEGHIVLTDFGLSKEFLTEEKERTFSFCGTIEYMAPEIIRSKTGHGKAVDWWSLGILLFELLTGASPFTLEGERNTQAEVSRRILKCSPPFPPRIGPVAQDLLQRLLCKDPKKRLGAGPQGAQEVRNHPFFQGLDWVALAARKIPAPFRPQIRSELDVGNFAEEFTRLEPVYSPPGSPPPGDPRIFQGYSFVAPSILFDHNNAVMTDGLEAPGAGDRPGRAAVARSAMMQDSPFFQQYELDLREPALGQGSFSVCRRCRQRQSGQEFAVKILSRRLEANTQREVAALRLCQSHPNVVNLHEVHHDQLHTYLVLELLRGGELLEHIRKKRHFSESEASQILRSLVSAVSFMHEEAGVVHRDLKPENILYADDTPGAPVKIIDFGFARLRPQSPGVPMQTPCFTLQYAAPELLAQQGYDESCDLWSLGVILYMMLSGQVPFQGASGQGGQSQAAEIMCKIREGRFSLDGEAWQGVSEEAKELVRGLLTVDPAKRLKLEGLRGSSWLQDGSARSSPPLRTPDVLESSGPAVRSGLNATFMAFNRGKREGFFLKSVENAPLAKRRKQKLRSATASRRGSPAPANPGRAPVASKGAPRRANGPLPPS
# [8] = target: SRSF protein kinase 3 (Homo sapiens) (UniProt Q9UPE1); experiment: Inhibition of MSSK1 (unknown origin) at 100 nM
# Chain of SRSF protein kinase 3 (Homo sapiens) (Q9UPE1 whole entry): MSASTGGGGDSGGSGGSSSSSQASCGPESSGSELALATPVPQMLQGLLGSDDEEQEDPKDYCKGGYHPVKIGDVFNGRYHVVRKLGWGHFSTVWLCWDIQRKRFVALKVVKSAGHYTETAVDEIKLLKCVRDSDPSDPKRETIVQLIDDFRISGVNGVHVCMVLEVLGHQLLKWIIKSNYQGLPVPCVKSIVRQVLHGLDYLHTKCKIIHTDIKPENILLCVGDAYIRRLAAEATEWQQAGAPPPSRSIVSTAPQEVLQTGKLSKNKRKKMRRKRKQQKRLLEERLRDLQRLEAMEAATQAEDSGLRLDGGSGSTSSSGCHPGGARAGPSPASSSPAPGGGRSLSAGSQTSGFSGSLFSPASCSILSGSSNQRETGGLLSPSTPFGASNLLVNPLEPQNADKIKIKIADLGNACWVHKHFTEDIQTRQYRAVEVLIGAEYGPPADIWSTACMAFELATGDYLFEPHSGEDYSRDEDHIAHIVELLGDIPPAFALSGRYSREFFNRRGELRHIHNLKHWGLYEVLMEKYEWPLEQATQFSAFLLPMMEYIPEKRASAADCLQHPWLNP
# [9] = target: Serine/threonine-protein kinase Nek2 (Homo sapiens) (UniProt P51955); experiment: Inhibition of NEK2 (unknown origin) at 100 nM
# Chain of Serine/threonine-protein kinase Nek2 (Homo sapiens) (P51955 whole entry): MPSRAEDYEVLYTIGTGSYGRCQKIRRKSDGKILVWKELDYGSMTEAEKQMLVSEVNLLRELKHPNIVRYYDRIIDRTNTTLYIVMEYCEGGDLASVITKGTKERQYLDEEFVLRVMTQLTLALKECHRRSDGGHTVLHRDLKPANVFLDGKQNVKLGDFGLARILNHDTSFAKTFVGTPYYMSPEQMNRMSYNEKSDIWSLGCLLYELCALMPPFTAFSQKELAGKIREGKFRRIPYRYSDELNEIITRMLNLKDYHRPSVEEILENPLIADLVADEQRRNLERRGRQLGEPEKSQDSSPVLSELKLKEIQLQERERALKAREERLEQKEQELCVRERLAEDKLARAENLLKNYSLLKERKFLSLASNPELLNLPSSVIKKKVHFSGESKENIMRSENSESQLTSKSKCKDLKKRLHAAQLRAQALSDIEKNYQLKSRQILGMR
# [10] = target: Serine/threonine-protein kinase Nek9 (Homo sapiens) (UniProt Q8TD19); experiment: Inhibition of NEK9 (unknown origin) at 100 nM
# [11] = target: Phosphatidylinositol 4-phosphate 3-kinase C2 domain-containing subunit beta (Homo sapiens) (UniProt O00750); experiment: Inhibition of PI3KC2b (unknown origin) at 100 nM
# [12] = target: Phosphatidylinositol 4-kinase alpha (Homo sapiens) (UniProt P42356); experiment: Inhibition of PI4Ka (unknown origin) at 100 nM
# [13] = target: Serine/threonine-protein kinase pim-2 (Homo sapiens) (UniProt Q9P1W9); experiment: Inhibition of PIM2 (unknown origin) at 100 nM
# [14] = target: Protein kinase C gamma type (Homo sapiens) (UniProt P05129); experiment: Inhibition of PKCgamma (unknown origin) at 100 nM
# [15] = target: cGMP-dependent protein kinase 1 (Homo sapiens) (UniProt Q13976); experiment: Inhibition of PKG1alpha (unknown origin) at 100 nM
# [16] = target: cGMP-dependent protein kinase 2 (Homo sapiens) (UniProt Q13237); experiment: Inhibition of PKG2 (unknown origin) at 100 nM
# [17] = target: Serine/threonine-protein kinase Sgk3 (Homo sapiens) (UniProt Q96BR1); experiment: Inhibition of SGK3 (unknown origin) at 100 nM
# [18] = organism: Homo sapiens; experiment: Inhibition of SRM (unknown origin) at 100 nM
# [19] = target: Tyrosine-protein kinase Tec (Homo sapiens) (UniProt P42680); experiment: Inhibition of TEC (unknown origin) at 100 nM
# [20] = target: BDNF/NT-3 growth factors receptor (Homo sapiens) (UniProt Q16620); experiment: Inhibition of TRKB (unknown origin) at 100 nM
# [21] = target: Wee1-like protein kinase (Homo sapiens) (UniProt P30291); experiment: Inhibition of WEE1 (unknown origin) at 100 nM
# [22] = target: Mitogen-activated protein kinase 11 (Homo sapiens) (UniProt Q15759); experiment: Inhibition of p38beta(unknown origin) at 100 nM
# Chain of Mitogen-activated protein kinase 11 (Homo sapiens) (Q15759 whole entry): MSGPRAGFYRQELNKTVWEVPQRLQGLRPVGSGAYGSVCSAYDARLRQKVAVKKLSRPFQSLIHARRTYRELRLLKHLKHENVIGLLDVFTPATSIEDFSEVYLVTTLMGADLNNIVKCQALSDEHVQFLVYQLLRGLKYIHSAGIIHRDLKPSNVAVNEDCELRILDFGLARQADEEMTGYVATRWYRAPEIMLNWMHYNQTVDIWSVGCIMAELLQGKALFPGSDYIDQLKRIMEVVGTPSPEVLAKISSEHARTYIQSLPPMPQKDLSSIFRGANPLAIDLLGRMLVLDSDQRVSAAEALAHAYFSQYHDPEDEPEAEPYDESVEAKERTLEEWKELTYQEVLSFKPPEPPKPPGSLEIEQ
# [23] = target: Mitogen-activated protein kinase 13 (Homo sapiens) (UniProt O15264); experiment: Inhibition of p38delta(unknown origin) at 100 nM
# Chain of Mitogen-activated protein kinase 13 (Homo sapiens) (O15264 whole entry): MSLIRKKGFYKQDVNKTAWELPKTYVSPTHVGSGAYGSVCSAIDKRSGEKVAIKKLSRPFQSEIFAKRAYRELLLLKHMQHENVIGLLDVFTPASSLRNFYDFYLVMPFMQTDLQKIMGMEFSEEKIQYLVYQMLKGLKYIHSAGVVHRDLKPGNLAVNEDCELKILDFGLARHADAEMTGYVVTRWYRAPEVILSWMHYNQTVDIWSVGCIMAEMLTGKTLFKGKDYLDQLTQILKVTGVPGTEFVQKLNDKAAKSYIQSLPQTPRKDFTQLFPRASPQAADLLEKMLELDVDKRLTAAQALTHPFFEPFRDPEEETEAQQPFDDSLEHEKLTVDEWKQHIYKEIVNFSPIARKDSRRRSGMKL
# [24] = target: Activin receptor type-2B (Homo sapiens) (UniProt Q13705); experiment: Inhibition of ACVR2B (unknown origin) at 100 nM
# Chain of Activin receptor type-2B (Homo sapiens) (Q13705 whole entry): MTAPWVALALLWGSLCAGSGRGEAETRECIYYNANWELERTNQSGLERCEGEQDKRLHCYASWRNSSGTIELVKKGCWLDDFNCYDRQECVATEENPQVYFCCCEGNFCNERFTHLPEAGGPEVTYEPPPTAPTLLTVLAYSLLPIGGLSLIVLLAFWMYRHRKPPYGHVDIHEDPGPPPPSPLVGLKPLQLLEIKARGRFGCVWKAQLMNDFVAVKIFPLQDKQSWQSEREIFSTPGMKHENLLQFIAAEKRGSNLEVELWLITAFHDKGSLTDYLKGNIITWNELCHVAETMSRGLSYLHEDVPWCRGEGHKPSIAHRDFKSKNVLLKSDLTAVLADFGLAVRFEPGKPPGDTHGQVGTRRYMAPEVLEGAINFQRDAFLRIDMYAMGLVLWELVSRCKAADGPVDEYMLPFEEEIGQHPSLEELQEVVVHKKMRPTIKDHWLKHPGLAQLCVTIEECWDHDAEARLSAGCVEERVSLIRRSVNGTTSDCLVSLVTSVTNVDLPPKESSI
# [25] = target: Tyrosine-protein kinase receptor UFO (Homo sapiens) (UniProt P30530); experiment: Inhibition of AXL (unknown origin) at 100 nM
# [26] = target: Calcium/calmodulin-dependent protein kinase kinase 1 (Homo sapiens) (UniProt Q8N5S9); experiment: Inhibition of CaMKK1 (unknown origin) at 100 nM
# [27] = target: Calcium/calmodulin-dependent protein kinase kinase 2 (Homo sapiens) (UniProt Q96RR4); experiment: Inhibition of CAMKK2 (unknown origin) at 100 nM
# [28] = target: CDK9/cyclin T1 (Homo sapiens) (UniProt O60563+P50750); experiment: Inhibition of CDK9/cyclinT1 (unknown origin) at 100 nM; assay type: protein-complex assay
# [29] = target: Casein kinase I isoform gamma-2 (Homo sapiens) (UniProt P78368); experiment: Inhibition of CK1gamma2 (unknown origin) at 100 nM
# [30] = target: Calcium/calmodulin-dependent protein kinase type 1D (Homo sapiens) (UniProt Q8IU85); experiment: Inhibition of CaMKIdelta (unknown origin) at 100 nM
# [31] = target: Dual specificity tyrosine-phosphorylation-regulated kinase 1A (Homo sapiens) (UniProt Q13627); experiment: Inhibition of DYRK1A (unknown origin) at 100 nM
# [32] = target: Dual specificity tyrosine-phosphorylation-regulated kinase 1B (Homo sapiens) (UniProt Q9Y463); experiment: Inhibition of DYRK1B (unknown origin) at 100 nM
# [33] = target: Mitogen-activated protein kinase 3 (Homo sapiens) (UniProt P27361); experiment: Inhibition of ERK1 (unknown origin) at 100 nM
# [34] = target: Ephrin type-B receptor 1 (Homo sapiens) (UniProt P54762); experiment: Inhibition of EPHB1 (unknown origin) at 100 nM
# Chain of Ephrin type-B receptor 1 (Homo sapiens) (P54762 whole entry): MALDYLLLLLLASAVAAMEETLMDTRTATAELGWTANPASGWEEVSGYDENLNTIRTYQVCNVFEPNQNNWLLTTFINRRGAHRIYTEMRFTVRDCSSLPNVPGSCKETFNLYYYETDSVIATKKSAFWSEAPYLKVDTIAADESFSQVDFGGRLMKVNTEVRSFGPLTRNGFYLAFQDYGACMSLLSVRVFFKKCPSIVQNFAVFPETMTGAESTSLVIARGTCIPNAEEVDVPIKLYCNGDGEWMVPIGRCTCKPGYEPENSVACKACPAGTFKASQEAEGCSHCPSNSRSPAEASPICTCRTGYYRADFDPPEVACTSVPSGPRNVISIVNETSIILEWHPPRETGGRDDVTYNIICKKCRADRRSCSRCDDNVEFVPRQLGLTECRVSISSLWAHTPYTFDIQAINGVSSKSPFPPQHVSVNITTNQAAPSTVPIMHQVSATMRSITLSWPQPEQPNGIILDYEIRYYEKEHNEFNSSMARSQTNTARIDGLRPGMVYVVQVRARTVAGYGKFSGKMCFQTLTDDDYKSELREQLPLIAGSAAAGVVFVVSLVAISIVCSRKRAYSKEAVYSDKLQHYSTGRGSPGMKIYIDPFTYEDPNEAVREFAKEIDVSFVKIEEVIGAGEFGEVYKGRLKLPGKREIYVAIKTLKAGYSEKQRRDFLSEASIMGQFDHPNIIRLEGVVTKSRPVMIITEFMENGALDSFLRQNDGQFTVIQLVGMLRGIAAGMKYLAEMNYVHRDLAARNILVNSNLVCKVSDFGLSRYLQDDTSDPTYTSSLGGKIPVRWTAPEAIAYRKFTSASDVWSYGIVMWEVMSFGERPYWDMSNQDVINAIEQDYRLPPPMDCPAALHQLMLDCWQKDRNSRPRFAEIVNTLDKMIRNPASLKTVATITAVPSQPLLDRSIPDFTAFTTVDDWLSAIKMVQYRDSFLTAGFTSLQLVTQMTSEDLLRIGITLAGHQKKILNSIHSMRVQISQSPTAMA
# [35] = target: Ephrin type-B receptor 3 (Homo sapiens) (UniProt P54753); experiment: Inhibition of EPHB3 (unknown origin) at 100 nM
# [36] = system: Fibroblast growth factor receptor 3 (Homo sapiens), P22607 [K650E]; experiment: Inhibition of FGFR3 K650E mutant (unknown origin) at 100 nM
# Chain of Fibroblast growth factor receptor 3 (Homo sapiens), P22607 [K650E] (P22607 whole entry K650E): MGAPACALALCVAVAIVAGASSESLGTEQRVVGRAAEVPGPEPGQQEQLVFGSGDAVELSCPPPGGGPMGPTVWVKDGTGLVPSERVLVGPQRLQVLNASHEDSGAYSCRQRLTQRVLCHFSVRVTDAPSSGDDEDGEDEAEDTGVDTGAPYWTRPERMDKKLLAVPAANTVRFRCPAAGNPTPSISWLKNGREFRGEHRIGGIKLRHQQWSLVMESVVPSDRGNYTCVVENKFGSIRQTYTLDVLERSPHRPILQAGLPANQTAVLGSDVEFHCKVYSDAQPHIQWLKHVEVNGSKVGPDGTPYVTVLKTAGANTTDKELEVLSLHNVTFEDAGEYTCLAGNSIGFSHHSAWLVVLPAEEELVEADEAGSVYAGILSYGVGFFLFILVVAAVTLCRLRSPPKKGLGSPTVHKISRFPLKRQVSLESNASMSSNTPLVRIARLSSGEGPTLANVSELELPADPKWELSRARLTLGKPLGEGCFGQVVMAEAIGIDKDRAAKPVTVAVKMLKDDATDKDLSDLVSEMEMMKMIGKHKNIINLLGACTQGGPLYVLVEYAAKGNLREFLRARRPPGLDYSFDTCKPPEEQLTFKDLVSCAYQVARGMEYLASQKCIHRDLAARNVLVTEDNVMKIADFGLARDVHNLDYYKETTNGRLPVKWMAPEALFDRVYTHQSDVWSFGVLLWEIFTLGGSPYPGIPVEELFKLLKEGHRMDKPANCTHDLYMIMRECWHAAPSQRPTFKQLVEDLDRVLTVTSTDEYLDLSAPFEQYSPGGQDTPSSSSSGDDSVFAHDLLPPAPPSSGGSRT
# [37] = target: Vascular endothelial growth factor receptor 1 (Homo sapiens) (UniProt P17948); experiment: Inhibition of FLT1 (unknown origin) at 100 nM
# [38] = target: Tyrosine-protein kinase FRK (Homo sapiens) (UniProt P42685); experiment: Inhibition of FRK (unknown origin) at 100 nM
# [39] = target: G protein-coupled receptor kinase 3 (Homo sapiens) (UniProt P35626); experiment: Inhibition of GRK3 (unknown origin) at 100 nM
# [40] = target: G protein-coupled receptor kinase 5 (Homo sapiens) (UniProt P34947); experiment: Inhibition of GRK5 (unknown origin) at 100 nM
# [41] = target: Glycogen synthase kinase-3 alpha (Homo sapiens) (UniProt P49840); experiment: Inhibition of GSK3aplha (unknown origin) at 100 nM
# [42] = system: Mast/stem cell growth factor receptor Kit (Homo sapiens), P10721 [V654A]; experiment: Inhibition of KIT V654A mutant (unknown origin) at 100 nM
# [43] = target: Proto-oncogene tyrosine-protein kinase Src (Homo sapiens) (UniProt P12931); experiment: Inhibition of SRCN1 (unknown origin) at 100 nM
structure (smiles),measurement,setting,value
CC1(C)OCc2c(Nc3n[nH]c4ccccc34)nc(-c3cn[nH]c3)nc21,inhibition,[1],89.4%
same,inhibition,[2],-1.8%
same,inhibition,[3],43.6%
same,inhibition,[4],12.3%
same,inhibition,[5],2.9%
same,inhibition,[6],-3.9%
same,inhibition,[7],15.2%
same,inhibition,[8],-3.2%
same,inhibition,[9],7.7%
same,inhibition,[10],-0.2%
same,inhibition,[11],18.8%
same,inhibition,[12],-2.6%
same,inhibition,[13],3.1%
same,inhibition,[14],16.4%
same,inhibition,[15],3.4%
same,inhibition,[16],-8.9%
same,inhibition,[17],3.1%
same,inhibition,[18],17.3%
same,inhibition,[19],0.1%
same,inhibition,[20],-1.4%
same,inhibition,[21],36.1%
same,inhibition,[22],8.7%
same,inhibition,[23],8.6%
same,inhibition,[24],96.8%
same,inhibition,[25],-2.2%
same,inhibition,[26],7%
same,inhibition,[27],1.8%
same,inhibition,[28],-6.1%
same,inhibition,[29],3.5%
same,inhibition,[30],-5.3%
same,inhibition,[31],9.6%
same,inhibition,[32],-1.6%
same,inhibition,[33],10.9%
same,inhibition,[34],22%
same,inhibition,[35],20.1%
same,inhibition,[36],38.8%
same,inhibition,[37],71.8%
same,inhibition,[38],85.6%
same,inhibition,[39],-3.6%
same,inhibition,[40],-1.4%
same,inhibition,[41],30.8%
same,inhibition,[42],1.1%
same,inhibition,[43],47.2%
